Laboratory results taken from ChEMBL document CHEMBL1201862, “PubChem BioAssay data set” (2004).
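Test compounds were applied to cells in 96-well plates for 48 hours at 5 doses. GI50 = concentration required for 50% inhibition of growth.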 Activity calls are given as the source filed them. Cut-off read from the data, not from the text of the source: active = GI50 up to about 1.1 µM and inactive = higher.

Columns and labels:
Experiment in all cases: NCI tumour cell line growth inhibition, 48 h
EKVX = test system: EKVX
DU-145 = test system: DU-145
T47D = test system: T47D
Malme-3M = test system: Malme-3M
U-251 = test system: U-251
HCT-15 = test system: HCT-15
MDA-MB-231 = test system: MDA-MB-231
HCT-116 = test system: HCT-116
NCI-H226 = test system: NCI-H226
UO-31 = test system: UO-31
SW-620 = test system: SW-620
TK-10 = test system: TK-10
A549 = test system: A549
OVCAR-5 = test system: OVCAR-5
LOX IMVI = test system: LOX IMVI
A498 = test system: A498
OVCAR-8 = test system: OVCAR-8
SNB-19 = test system: SNB-19
CCRF-CEM = test system: CCRF-CEM
SNB-75 = test system: SNB-75

| Structure (SMILES) | GI50 (EKVX) | GI50 (DU-145) | GI50 (T47D) | GI50 (Malme-3M) | GI50 (U-251) | GI50 (HCT-15) [µM] | GI50 (MDA-MB-231) | GI50 (HCT-116) | GI50 (NCI-H226) | GI50 (UO-31) | GI50 (SW-620) | GI50 (TK-10) | GI50 (A549) | GI50 (OVCAR-5) | GI50 (LOX IMVI) | GI50 (A498) | GI50 (OVCAR-8) | GI50 (SNB-19) | GI50 (CCRF-CEM) | GI50 (SNB-75) |
| --- | --- | --- | --- | --- | --- | --- | --- | --- | --- | --- | --- | --- | --- | --- | --- | --- | --- | --- | --- | --- |
| CC(C)(C)OC(=O)NCCCCC1NC(=O)[C@@H]2Cc3c([nH]c4ccccc34)C(C3CCCCC3)N2C1=O (stereo partly specified) | 33.7 µM (inactive) | 54.8 µM (inactive) | 12.9 µM (inactive) | > 100 µM (inactive) | 31.5 µM (inactive) | 36 | 31.6 µM (inactive) | 29.4 µM (inactive) | 75 µM (inactive) | 35.1 µM (inactive) | 61.8 µM (inactive) | 21.8 µM (inactive) | 30.5 µM (inactive) | > 100 µM (inactive) | 31.2 µM (inactive) | > 100 µM (inactive) | 43 µM (inactive) | 57.7 µM (inactive) | – | – |
| O=C(Nc1ccccc1C(=O)NCc1ccccc1)/C(=C/c1ccccc1O)NC(=O)c1ccccc1 | > 100 µM (inactive) | > 100 µM (inactive) | 19.5 µM (inactive) | – | 52.5 µM (inactive) | 24.7 | 27.1 µM (inactive) | > 100 µM (inactive) | > 100 µM (inactive) | 65.6 µM (inactive) | > 100 µM (inactive) | 74.6 µM (inactive) | > 100 µM (inactive) | > 100 µM (inactive) | 98.2 µM (inactive) | > 100 µM (inactive) | 95.1 µM (inactive) | > 100 µM (inactive) | > 100 µM (inactive) | 19.1 µM (inactive) |
| N=C1OC(CN2CCN(c3ccccc3)CC2)CN1C(=O)Nc1ccccc1 (stereo unspecified) | > 100 µM (inactive) | > 100 µM (inactive) | > 100 µM (inactive) | > 100 µM (inactive) | > 100 µM (inactive) | > 100 | > 100 µM (inactive) | > 100 µM (inactive) | > 100 µM (inactive) | > 100 µM (inactive) | > 100 µM (inactive) | > 100 µM (inactive) | > 100 µM (inactive) | > 100 µM (inactive) | > 100 µM (inactive) | > 100 µM (inactive) | > 100 µM (inactive) | > 100 µM (inactive) | 43.3 µM (inactive) | – |
| O=C(O)CCC(=O)c1ccc2c(c1)C(C(=O)O)CC2 (stereo unspecified) | > 100 µM (inactive) | > 100 µM (inactive) | > 100 µM (inactive) | > 100 µM (inactive) | > 100 µM (inactive) | > 100 | > 100 µM (inactive) | 0.0935 µM (active) | > 100 µM (inactive) | > 100 µM (inactive) | > 100 µM (inactive) | > 100 µM (inactive) | 0.0902 µM (active) | > 100 µM (inactive) | > 100 µM (inactive) | > 100 µM (inactive) | 0.652 µM (active) | > 100 µM (inactive) | – | – |
| COc1ccc(C)c2c1N[C@](C)([C@]1(C)Nc3c(OC)ccc(C)c3C1=O)C2=O | > 100 µM (inactive) | > 100 µM (inactive) | > 100 µM (inactive) | > 100 µM (inactive) | > 100 µM (inactive) | > 100 | > 100 µM (inactive) | > 100 µM (inactive) | > 100 µM (inactive) | > 100 µM (inactive) | > 100 µM (inactive) | – | > 100 µM (inactive) | > 100 µM (inactive) | > 100 µM (inactive) | > 100 µM (inactive) | 49.4 µM (inactive) | 68.9 µM (inactive) | > 100 µM (inactive) | – |
| Cc1cn(CCCCCOC(=O)NC(CCCNC(=N)N)C(=O)O)c(=O)[nH]c1=O (stereo unspecified) | 40.3 µM (inactive) | 37.5 µM (inactive) | > 100 µM (inactive) | – | 50.2 µM (inactive) | 28.1 | 69.8 µM (inactive) | 37.6 µM (inactive) | 30.3 µM (inactive) | > 100 µM (inactive) | 38.7 µM (inactive) | > 100 µM (inactive) | 49.2 µM (inactive) | > 100 µM (inactive) | 53.6 µM (inactive) | 24.9 µM (inactive) | 39.4 µM (inactive) | 40.8 µM (inactive) | 37.2 µM (inactive) | 31.6 µM (inactive) |
